Measurements: patent US20240239818A1, “COMPOUNDS AND COMPOSITIONS COMPRISING FLUOROPHORES FOR USE IN VISUALIZATION AND PURIFICATION OR MANIPULATION” (priority 2022, published 2024)
Entries after “also recorded” stand apart in the source; their conditions may differ.

What was measured:
Assay type in all cases: cell-based
[1] = molecular target: T1, msGFP-HaloTag® fusion localized to the mitochondrial outer membrane (Rhodococcus rhodochrous, UniProt P0A3G2, A155T/A167V/A172T/A224E/C128F/C176G/D78G/E160K/E257K/H272N/K175M/K195N/L47V/L88M/N227D/S58T/T264A/Y273L/Y87F)
T1 construct: expressed in transfected cells; host or cells: HEK293T, calcium phosphate transfection
Description: HEK293T labeling and fluorescence microscopy. […] For pulse-chase experiments, HEK293T cells were incubated with biotin-HaloTag® ligand (6; #G8281, Promega) at either 100 nM or 10 μM for 1 hour at 37° C. and chased with 100 nM of JANELIA FLUOR® (JF)549-HaloTag® ligand (2HTL). […] For imaging, the coverslips containing HEK293T cells were fixed with 4% paraformaldehyde in PBS at 37° C. for 10 min, washed with PBS (3×), and mounted on glass slides with ProLong Glass Antifade Mountant with NucBlue™ Stain (ThermoFisher; P36981). These cells were imaged using a Zeiss LSM 880 with Airyscan and a plan-apochromatic 63×/1.40 oil objective in Fast Airyscan mode. The same image acquisition settings were used for each trial and condition. Images were then processed with automatic Airyscan deconvolution settings.

[2] = molecular target: T2, msGFP-HaloTag® fusion protein (mitochondria) from HEK293T cells (Rhodococcus rhodochrous, UniProt P0A3G2, A155T/A167V/A172T/A224E/C128F/C176G/D78G/E160K/E257K/H272N/K175M/K195N/L47V/L88M/N227D/S58T/T264A/Y273L/Y87F); test: Affinity capture (streptavidin microbeads) and in-gel fluorescence; conditions: streptavidin beads
T2 construct: and (4) HaloTag®; expressed in transfected cells; host or cells: HEK293T, calcium phosphate transfection
Description: Affinity capture and in-gel fluorescence experiments. Affinity capture pulldown isolation experiments of biotin-labeled HaloTag® fusion proteins were performed on ice-cold isolation buffer (IB) consisting of KCl (0.18 M), ethylene glycol-bis(β-aminoethyl ether)-N,N,N′,N′-tetraacetic acid (EGTA; 1 mM), 3-(N-morpholino)propanesulfonic acid (MOPS; 5 mM); the pH was adjusted to pH=7.35 using KOH(aq).^51 HEK293T cells were scraped with 500 μL IB and homogenized using 12 strokes with a 27G syringe. The resulting homogenate was spun at 4° C. at 1000 g for 3 min to pellet large cellular debris. 50 μL of streptavidin-coated microbeads (Miltenyi, 130-048-101) were added to the supernatant and incubated for 30 min at 4° C. with slow rotation. LS columns (Miltenyi, 130-042-401) were prepared by first washing with 3 mL IB consisting of 2.5% bovine serum albumin (BSA; Jackson ImmunoResearch, 001-000-162) and then with plain IB (3×). Prior to supernatant-microbead mixture being loaded onto LS columns, 5% volume was taken for downstream total fraction calculations (i.e., the “total/20” sample). Columns and samples were kept at 4° C. (cold room) while samples were loaded onto columns and washed with IB (3×); this fraction was collected as designated as “wash”. After the washing step, the column was removed from the QuadroMACs magnet holder (Miltenyi, 130-092-857) and eluted with gentle plunge action into an Eppendorf tube; this was labeled as “eluate”. From here, there were three fractions for each condition: total/20, wash (unbound), and eluate (bound). Since mitochondria were being isolated, these samples were spun at 4° C. and 20,000 g to pellet mitochondria. These samples were then solubilized using the lysis buffer containing 1×PBS, 2% SDS, 1% Triton x-100, 10 mM EDTA, and protease inhibitors (2 mM PMSF, aprotinin, leupeptin, and pepstatin A). Samples were then incubated at 72° C. for 3-4 min after the addition of sample buffer (SB) (DTT, glycerol, and bromophenol blue). For protein detection, 10-20 μL of the sample was subjected to sodium dodecyl sulfate-polyacrylamide gel electrophoresis (SDS-PAGE), using 13% gels. The affinity capture pulldown efficiency was monitored using in-gel fluorescence. The msGFP signal from HaloTag®-TEV-4×GS-msGFP-mito after cell lysis and SDS-PAGE was analyzed, in-gel, using a BioRad Chemidoc MP imager (BioRad) through GFP fluorescence excitation and emission filters. Data were quantified by densitometry using Fiji.^52 Capture efficiency was calculated using equation 3:
[formula] • where Ieluate is the in-gel fluorescence intensity of the bead-bound fraction and Itotal/20 is the in-gel fluorescence intensity of the 5% of crude sample reserved for concentration control (i.e., the “total/20” sample).
Evaluation of biotin-HaloTag® ligand. A live cell permeable biotin reagent was saught for affinity pulldown of HaloTag® fusion proteins, given the broad utility of biotin conjugates in biochemistry and cell biology. To evaluate the performance of biotin-containing HaloTag® ligand, an assay was developed (FIG. 3A) where the HaloTag® is expressed as a fusion with monomeric superfolder green fluorescent protein (msGFP); the construct also included an OMP25 sequence to localize the fusion protein to the outer mitochondrial membrane, allowing straightforward imaging and affinity capture experiments.^28-29 HEK293T cells expressing this fusion protein were incubated with biotin-containing HaloTag® ligands followed by washing and cell lysis. The crude supernatant was incubated with streptavidin-coated magnetic microbeads, applied to a magnetic column, and washed. The magnet was removed, and the bead-bound mitochondria were eluted, lysed, and the resulting solution was analyzed by sodium dodecyl sulfate-polyacrylamide gel electrophoresis (SDS-PAGE) and in-gel fluorescence. To minimize dilution of the sample only the initial bead-bound fraction was collected, leaving some material on the column. […]

BRD4 [3] = molecular target: T3, BRD4 (Homo sapiens, UniProt O60885); test: BRD4 recruitment to coilin-HaloTag® in live N2a cells (no wash lattice lightsheet microscopy); conditions: 100 nM
T3 construct: expressed in transfected cells; host or cells: N2a cells, transient transfection
Description: (§1) Live cell protein imaging and manipulation using JQ1-rhodamine-HaloTag® ligand. The ability of JQ1 ligands to recruit BET family protein BRD4 to HaloTag® fusion proteins at distinct genomic regions in N2a cells was then tested (FIG. 13A). N2a cells are neural progenitor cells that are frequently utilized to study neuronal differentiation and axonal growth. […] N2a cells were transiently transfected with plasmids encoding the HaloTag® protein fused to the following nuclear proteins: (1) constitutive heterochromatin marker heterochromatin protein 1 (HP1); (2) Cajal body component coilin; and (3) centromere localized histone H3 variant centromere protein A (CENP-A). These three proteins have a very distinct distribution in the nucleus than BRD4 which generally has an euchromatic distribution. Localization of BRD4 to specific gene loci can induce gene expression. […]
(§2) Initially, a side-by-side comparison of JF646 based 17 and JF635 based 18 was performed for recruiting BRD4 to coilin-HaloTag® under a “no wash” lattice lightsheet fluorescence microscopy setup. […] Advantageously, 18 also has lower absorptivity and negligible fluorescence quantum yield before HaloTag® conjugation. “No wash” imaging was performed and the fluorescence from JF635 and sfGFP were monitored. […] The […] HP1-HaloTag® labeled with either JF635-HaloTag® ligand (5HTL) or the JQ1 analog 18 were quantified (FIG. 13J).

BRD4 [4] = molecular target: T3, BRD4; test: BRD4 recruitment to HP1-HaloTag® in live N2a cells (no wash lattice lightsheet microscopy); conditions: 100 nM
Description: as §1, §2

T1 sequence (P0A3G2 other isoform, or with tags, fused parts or gaps with the stated changes): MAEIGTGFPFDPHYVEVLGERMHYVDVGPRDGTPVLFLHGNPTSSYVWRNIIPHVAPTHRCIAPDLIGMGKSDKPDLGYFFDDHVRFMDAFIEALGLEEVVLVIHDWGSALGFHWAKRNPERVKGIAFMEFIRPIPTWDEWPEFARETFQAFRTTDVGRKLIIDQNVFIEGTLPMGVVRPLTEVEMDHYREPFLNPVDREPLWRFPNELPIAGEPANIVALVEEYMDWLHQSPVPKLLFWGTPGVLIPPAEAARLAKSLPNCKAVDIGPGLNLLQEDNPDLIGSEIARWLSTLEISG
T2 sequence (P0A3G2 other isoform, or with tags, fused parts or gaps with the stated changes): as above

SMILES | labeling of HaloTag®-msGFP fusion by pulse-chase (JF549/msGFP ratio after 2HTL chase) ([1]; HEK293T, 10 μM (μM concentrations), 1 h pulse) | labeling of HaloTag®-msGFP fusion by pulse-chase ([1]; HEK293T, nanomolar concentration (100 nM)) | concentration required to achieve cellular labeling ([1]; live cells) | affinity capture (protein bound to streptavidin) [2] | BRD4 recruitment to coilin-HaloTag® (BRD4 [3]) | BRD4 localization to HP1-HaloTag® (BRD4 [4])
O=C(CCCC[C@@H]1SC[C@@H]2NC(=O)N[C@@H]21)NCCOCCOCCCCCCCl [compound 6, biotin-HaloTag® ligand] | substantially reduced JF549/msGFP ratio; also recorded: labels the HaloTag®-msGFP fusion in living cells; also recorded: substantially labeled the HaloTag® protein fusion | poor labeling | 10 µM | prevents purification of HaloTag®-expressing mitochondria; also recorded: no appreciable affinity capture |  | 
Cc1sc2c(c1C)C(c1ccc(Cl)cc1)=N[C@H](CC(=O)NCCCCOCCOCCNC(=O)C1(F)C[N+](=C3C=CC4=C(c5cc(C(=O)NCCOCCOCCCCCCCl)ccc5C(=O)[O-])c5ccc(N6CC(F)C6)cc5[Si](C)(C)C4=C3)C1)c1nnc(C)n1-2 (stereo partly drawn) [compound 19, (−)-JQ1-JF635-HaloTag® ligand] |  |  |  |  | did not result in BRD4 localization | did not result in BRD4 localization
